The values below come from ChEMBL document CHEMBL1126702, “Modeling the anticancer action of some retinoid compounds by making use of the OASIS method” (J Med Chem, 1993).

One series deals with Cricetinae gen. sp. Nature of the series: Tested for anticancer activity against hamster tracheal cells. It counts as functional, Trachea.
Series [1] can be described thus: Partition coefficient (logP). It counts as physicochemical. The settings on record: octanol/water.

Some results are limits rather than exact numbers.

As for `CC(=O)C1=C(/C=C/C(C)=C/C=C/C(C)=C/C=O)C(C)(C)CC1`, the “-Log ED50” value with Cricetinae gen. sp. is given as 9.3. Besides, in series [1] (read-out: logP), the logP (in general, the decadic logarithm of the partition coefficient of the neutral form, usually between octanol and water) turned out to be 6.63.
The like results for `CCC(=O)/C=C(C)/C=C/C=C(C)/C=C/c1c(C)cc(O)c(C)c1C` were, in that order, 7 and 7.34.
The like results for `CC(=O)/C=C(C)/C=C/C=C(C)/C=C/C1(O)C(C)(C)CCCC1(C)O` (stereo not drawn) were, in that order, 6.7 and 4.2.
The like results for `CC(=O)/C=C(C)/C=C/C=C(C)/C=C/C12OC1(C)CCCC2(C)C` (stereo not drawn) were, in that order, 8.52 and 5.08.
Turning to `CC1=C(/C=C/C(C)=C/C=C/C(C)=C/C=O)C(C)(C)CCC1=O`, the “-Log ED50” value in the series on Cricetinae gen. sp. is listed as 9.15. Also, in series [1] (read-out: logP), the logP came to 6.63.
Regarding `COc1cc(C)c(/C=C/C(C)=C/C=C/C(C)=C/C=O)c(C)c1C`, the “-Log ED50” value with Cricetinae gen. sp. came out at 8.3. Further, the logP in series [1] (read-out: logP) was determined as 6.57.
The like results for `CC(/C=C/C=C(C)/C=C/c1ccco1)=C\C=O` were, in that order, 6 and 3.69.
The like results for `CCC(=O)/C=C(C)/C=C/C=C(C)/C=C/c1c(C)cc(OC)c(C)c1C` were, in that order, 7.7 and 7.22.
The like results for `COC(C)C1=C(/C=C/C(C)=C/C=C/C(C)=C/C=O)C(C)(C)CC1` (stereo not drawn) were, in that order, 9.7 and 6.58.
Consider `CC(/C=C/C=C(C)/C=C/c1ccccc1)=C\C=O`, for which the “-Log ED50” value in the series on Cricetinae gen. sp. was 6. Further, in series [1] (read-out: logP), the logP is 5.37.
In the case of `CC(/C=C/C=C(C)/C=C/c1cccnc1)=C\C=O`, in the series on Cricetinae gen. sp., the “-Log ED50” value is 6.52. For the same molecule, the logP in series [1] (read-out: logP) came out at 4.69.
For the molecule `CC(/C=C/C=C(C)/C=C/C1C(C)CCCC1(C)C)=C\C=O` (stereo not drawn), the “-Log ED50” value in the series with Cricetinae gen. sp. was less than 9. In series [1] (read-out: logP), the logP was determined as 7.29.
As for `CCC(=O)/C=C(C)/C=C/C=C(C)/C=C/C1=C(C)CCCC1(C)C`, in the series with Cricetinae gen. sp., the “-Log ED50” value is on record as 9.3. Besides, the logP in series [1] (read-out: logP) worked out at 8.12.
The like results for `CC(=O)/C=C(C)/C=C/C=C(C)/C=C/C1=C(C)CCCC1(C)C` were, in that order, 9.52 and 7.63.
With `CC1=C(/C=C/C(C)=C/C=C/C(C)=C/C=O)C(C)(C)CCC1O` (stereo not drawn), the “-Log ED50” value in the series with Cricetinae gen. sp. amounted to 9.15. In addition, the logP in series [1] (read-out: logP) is 6.1.
The like results for `CC(/C=C/C=C(C)/C=C/c1ccsc1)=C\C=O` were, in that order, more than 8 and 4.13.
The like results for `CC(/C=C/C=C(C)/C=C/C12OC1(C)CCCC2(C)C)=C\C=O` (stereo not drawn) were, in that order, 8.7 and 4.91.
With `CC1=CCCC(C)(C)C1/C=C/C(C)=C/C=C/C(C)=C/C=O` (stereo in doubt; 16), in the series with Cricetinae gen. sp., the “-Log ED50” value is less than 8. This molecule showed a logP in series [1] of 7.09.
Consider `CC1=CCCC(C)(C)C1/C=C/C(C)=C/C=C/C(C)=C/C=O` (stereo in doubt; 19), for which the “-Log ED50” value in the series with Cricetinae gen. sp. turned out to be 10.52. Moreover, the logP in series [1] (read-out: logP) was determined as 7.47.
